The record followed here is patent US4252898A.

≈ marks a conversion by molar mass, not a printed value. Where two headings read alike, the source gives them in different places. Where only a bound is given, the exact number is not on record here.

Test [1] has as its system NRRL 11459. Nature of the test: Antibiotic sensitivity of the producing strain (sensitivity discs on seeded ISP #2 agar). Also: key: +: sensitive (zones of inhibition); -: resistat (no zones of inhibition). As to conditions: 30° C., 14 days. It counts as cell-based, Streptomyces flocculus. The method, then:
(§1) The cell wall sugars are determined using a modification of the procedure of M. Lechevalier, "Chemical Methods as Criteria for the Separation of Actinomycetes Into Genera", workshop sponsored by the subcommittee on Actionomycetes of the American Society of Microbology, Dr. Thoman G. Pridham, Convenor, held at the Institute of Microbology, Rutgurs University, New Brunswick, N.J., 1971. The isomer of diaminopimelic acid is determined using the method of B. Becker Appl. Microbiol., 11 421 ([…]). Amino acid analysis is determined with washed cell wall fragments. Melanoid pigments are determined using ISP #6 (peptone-yeast extract iron agar) and ISP #7 (tyrosine agar). Inhibitors are tested by incorporating varing concentrations of inhibitors into ISP #2 agar plates and streaking the culture on the surface. Starch hydrolysis is determined by testing for the presence of starch with iodine on ISP #4 agar plates. Temperature range, NaCl tolerance, pH range, and antibiotic sensitivity are done using ISP #2 agar medium. The range of temperatures are: 25°, 28°, 30°, 34°, 37°, 40°, 45°, 50°, 55° C. NaCl tolerance is measured by adding NaCl to the agar to equal: 0, 1, 2, 3, 4, 5, 6, 8, 10, 12% and incubating at 30° C. for 7 days. Antibiotic sensitivity is determined using sensitivity discs padded onto seeded agar plates of ISP #2 medium and incubating at 30° C. for 14 days.

Test [2] deals with NRRL 11459. Kind of test: Inhibitor sensitivity of the producing strain (inhibitor in ISP #2 agar). It counts as cell-based, Streptomyces flocculus. The method, then:
as §1

In test [3] the test system is Actinomyces israelii W855. Kind of test: Susceptibility of anaerobic bacterial isolates, agar dilution. It counts as cell-based. Particulars: 27 hours incubation.
The test system of test [4] is Clostridium perfringens 81. Nature of the test: microbe, parasite or virus in culture. It counts as cell-based. As to conditions: Clostridium perfringens, 81, 27 h.
The subject of test [5] is Clostridium septicum 1128. Kind of test: Susceptibility of anaerobic bacterial isolates, agar dilution. It counts as cell-based. As to conditions: 27 hours incubation.
Test [6] deals with Eubacterium aerofaciens 1235. Described as above. It counts as cell-based. As to conditions: Collinsella aerofaciens, 27 hours incubation.
The subject of test [7] is Peptococcus asaccharolyticus 1302. The description is as above. It counts as cell-based. Particulars: Peptoniphilus asaccharolyticus, 27 hours incubation.
Another test concerns Peptococcus prevoti 1281. The description is as above. It counts as cell-based. As to conditions: 27 hours incubation.
Test [8] deals with Peptostreptococcus anaerobius 1428. Described as above. It counts as cell-based. As to conditions: 27 hours incubation.
Test [9] deals with Peptostreptococcus intermedium 1264. The test is described as above. Particulars: 27 hours incubation. It counts as cell-based.
For test [10], the system named is Propionibacterium acnes 79. The test is described as above. It counts as cell-based. As to conditions: Cutibacterium acnes, 27 hours incubation.
Test [11] concerns Bacteroides fragilis spp. fragilis 111. The test is described as above. It counts as cell-based. As to conditions: 27 hours incubation.
Test [12] concerns Bacteroides fragilis ssp. fragilis 1877. Described as above. Particulars: 27 hours incubation. It counts as cell-based.
Test [13] has as its system Bacteroides fragilis ssp. fragilis 1936B. The test is described as above. It counts as cell-based. Particulars: 27 hours incubation.
Test [14] relates to Bacteroides fragilis ssp. thetaiotaoimicron 1438. Described as above. It counts as cell-based. As to conditions: 27 hours incubation.
In test [15] the test system is Bacteroides melaninogenicus 1856/28. The test is described as above. Particulars: Prevotella intermedia, 27 hours incubation. It counts as cell-based.
Test [16] has as its system Bacteroides melaninogenicus 2736. The description is as above. Particulars: 27 hours incubation. It counts as cell-based.
Test [17] has as its system Bacteroides vulgatis 1211. The test is described as above. It counts as cell-based. As to conditions: 27 hours incubation.
In test [18] the test system is Bacteroides corrodens 1874. The description is as above. It counts as cell-based. Particulars: Eikenella corrodens, 27 hours incubation.
For test [19], the system named is Fusobacterium symbiosum 1470. The test is described as above. It counts as cell-based. As to conditions: 27 hours incubation.
The subject of test [20] is Fusobacterium necrophorum 6054A. The description is as above. It counts as cell-based. Particulars: 27 hours incubation.
The subject of another test is S. Aureus (3 strains). Kind of test: Disc-plate test. As to conditions: Staphylococcus aureus, read-out: Disc-Plate Zone Sizes.
The test system of test [21] is S. pyogenes C203. Kind of test: Disc-plate test. Particulars: Streptococcus pyogenes, C203, read-out: Disc-Plate Zone Sizes.
The next test has as its system Group D Streptococcus. Kind of test: Disc-plate test. As to conditions: read-out: Disc-Plate Zone Sizes.
A further test concerns S. pneumoniae I. Nature of the test: Disc-plate test. As to conditions: Streptococcus pneumoniae, read-out: Disc-Plate Zone Sizes.
The subject of the next test is E. coli Ec-14. Nature of the test: Disc-plate test. Particulars: Escherichia coli, EC14, read-out: Disc-Plate Zone Sizes.
The test system of another test is P rettgeri PR-2. Kind of test: Disc-plate test. Particulars: read-out: Disc-Plate Zone Sizes.
The next test relates to K. pneumoniae KL-14. Nature of the test: Disc-plate test. As to conditions: Klebsiella pneumoniae, KL14, read-out: Disc-Plate Zone Sizes.
In another test the test system is S. typhosa SA-12. Nature of the test: Disc-plate test. Particulars: read-out: Disc-Plate Zone Sizes.
For another test, the system named is S. aureus 3.55. Kind of test: Agar-dilution test. As to conditions: Staphylococcus aureus.
The next test deals with S. aureus 3074. Kind of test: Agar-dilution test. As to conditions: Staphylococcus aureus.
A further test deals with S. faecalis X-66. Kind of test: Agar-dilution test. As to conditions: Enterococcus faecalis, X66.
For another test, the system named is S. aureus 3055. Kind of test: Therapy in experimental mouse infections. Particulars: Staphylococcus aureus, 3055, in Mus musculus.
For test [22], the system named is S. pyogenes C203. Nature of the test: Therapy in experimental mouse infections. Particulars: Streptococcus pyogenes.
The subject of the next test is gram positive bacteria. Nature of the test: Antibacterial activity in standard test procedures.
Setting [23] is: NRRL11459, NRRL 11459, ISP #2 agar plates, read-out: Inhibitor sensitivity, MIC.

On to `CN(C)[C@@H]1C(O)=C(C(N)=O)C(=O)[C@@]2(O)C(O)=C3C(=O)c4c(O)cccc4[C@@](C)(O)[C@H]3C[C@@H]12` [Tetracycline], for which the Antibiotic sensitivity entry in the test with NRRL 11459 [1] (30 μg/disc) was “+”.

As to `CN[C@H](CC(C)C)C(=O)N[C@H]1C(=O)N[C@@H](CC(N)=O)C(=O)N[C@H]2C(=O)N[C@H]3C(=O)N[C@H](C(=O)N[C@H](C(=O)O)c4cc(O)cc(O)c4-c4cc3ccc4O)[C@H](O)c3ccc(c(Cl)c3)Oc3cc2cc(c3O[C@@H]2O[C@H](CO)[C@@H](O)[C@H](O)[C@H]2O[C@H]2C[C@](C)(N)[C@H](O)[C@H](C)O2)Oc2ccc(cc2Cl)[C@H]1O` [Vancomycin], in the test with NRRL 11459 [1] (30 μg/disc), the Antibiotic sensitivity entry is listed as “+”.

For `CC(=O)[O-].[Tl+]` [Thallium Acetate], in the test with NRRL 11459 [2], the “Inhibitor sensitivity, MIC” value was < 10 µg/mL.

Take `Cc1cc2nc3cc(C)c(N)cc3[n+](-c3ccccc3)c2cc1N.[Cl-]` [Safranin]: the “Inhibitor sensitivity, MIC” value with NRRL 11459 [2] (NRRL 11459, ISP #2 agar plates) is 10 µg/mL.

With `O=[Se](O)O` [Sodium Selenite], the MIC in the test on NRRL 11459 [2] (setting [23]) is 25 µg/mL.

In the case of `O=C([O-])CC(O)(CC(=O)[O-])C(=O)[O-].[Bi+3]` [Bismuth Citrate], the “Inhibitor sensitivity, MIC” value in the test on NRRL 11459 [2] (NRRL 11459, ISP #2 agar plates) was > 500 µg/mL.

Turning to `CCC[C@@H]1C[C@@H](C(=O)N[C@@H]([C@H]2O[C@H](SC)[C@H](O)[C@@H](O)[C@H]2O)[C@@H](C)O)N(C)C1` [Lincomycin], the Antibiotic sensitivity result in the test with NRRL 11459 [1] (2 μg/disc) is “+”.

`CCC1OC(=O)CC(O)C(C)C(OC2OC(C)C(OC3CCC(O)C(C)O3)C(N(C)C)C2O)C(CC=O)CC(C)C(=O)C=CC2(C)OC2C1C` (stereo not shown): the MIC in test [3] stood at 4 µg/mL (≈ 5.62 µM); in [4] it was 2 µg/mL (≈ 2.81 µM); in test [5], 2 µg/mL (≈ 2.81 µM); in [6], 2 µg/mL (≈ 2.81 µM); in [7], 2 µg/mL (≈ 2.81 µM); against Peptococcus prevoti 1281 it was 32 µg/mL (≈ 45 µM). Moreover, the MIC in test [8] was found to be 2 µg/mL (≈ 2.81 µM); in [9] it was 16 µg/mL (≈ 22.5 µM); in test [10], 2 µg/mL (≈ 2.81 µM); in test [11], 64 µg/mL (≈ 89.9 µM); in [12], 16 µg/mL (≈ 22.5 µM); in test [13], 32 µg/mL (≈ 45 µM). Moreover, the MIC stood at 8 µg/mL (≈ 11.2 µM) in test [14]; 64 µg/mL (≈ 89.9 µM) in test [15]; 32 µg/mL (≈ 45 µM) in test [16]; 8 µg/mL (≈ 11.2 µM) in test [17]; 32 µg/mL (≈ 45 µM) in test [18]; 4 µg/mL (≈ 5.62 µM) in test [19]. Also, the MIC was determined as 16 µg/mL (≈ 22.5 µM) in test [20], 1 µg/mL (≈ 1.4 µM) in the test on S. aureus 3.55, 2 µg/mL (≈ 2.81 µM) with S. aureus 3074 and 4 µg/mL (≈ 5.62 µM) in the test on S. faecalis X-66. Besides, the zone of inhibition at 100 µg/disc in the test with S. Aureus (3 strains) turned out to be 24 mm; with S. pyogenes C203 [21], 20 mm; in the test on Group D Streptococcus, 20 mm; with S. pneumoniae I it was 35 mm; in the test with E. coli Ec-14, 10.2 mm; in the test on P rettgeri PR-2, 8 mm. Moreover, the zone of inhibition at 100 µg/disc in the test with K. pneumoniae KL-14 worked out at 0 mm; in the test on S. typhosa SA-12, 9.9 mm. Moreover, the results for the ED50 in the test with S. aureus 3055 and with S. pyogenes C203 [22] were 5 mg/kg and 4.65 mg/kg, respectively. Further, in the test on gram positive bacteria, the antibacterial activity result is “exhibit antibacterial activity, particularly against gram positive bacteria”.

Turning to `[N-]=[N+]=[N-]` [Sodium Azide], in the test on NRRL 11459 [2] (NRRL11459, read-out: Inhibitor sensitivity, MIC), the MIC amounted to 10 µg/mL.

With Polymixin B, the Antibiotic sensitivity entry with NRRL 11459 [1] (300 units/disc) is listed as “+”.

With `CC[C@H]1OC(=O)[C@H](C)[C@@H](O[C@H]2C[C@@](C)(OC)[C@@H](O)[C@H](C)O2)[C@H](C)[C@@H](O[C@@H]2O[C@H](C)C[C@H](N(C)C)[C@H]2O)[C@](C)(O)C[C@@H](C)C(=O)[C@H](C)[C@@H](O)[C@]1(C)O` [Erythromycin], the Antibiotic sensitivity entry in the test with NRRL 11459 [1] (15 μg/disc) is listed as “+”.

With `[H]/N=C(/N)N[C@H]1[C@H](O)[C@@H](O)[C@H](O[C@@H]2O[C@@H](C)[C@](O)(C=O)[C@H]2O[C@@H]2O[C@@H](CO)[C@H](O)[C@@H](O)[C@@H]2NC)[C@@H](N/C(N)=N\[H])[C@@H]1O` [Streptomycin], in the test with NRRL 11459 [1] (10 μg/disc), the Antibiotic sensitivity result is “+”.

`CN(C)c1ccc(C(=C2C=CC(=[N+](C)C)C=C2)c2ccc(N(C)C)cc2)cc1` [Crystal Violet]: the MIC with NRRL 11459 [2] (setting [23]) stood at 1 µg/mL.

As to `C[C@@H]1[C@H](O)[C@@H](C)/C=C/C=C/CC/C=C/C=C/C=C/C=C/C(O[C@H]2O[C@H](C)[C@@H](O)[C@H](N)[C@@H]2O)CC2O[C@](O)(CC(O)C(O)CCC(O)CC(O)CC(O)CC(=O)O[C@H]1C)CC(O)C2C(=O)O` (stereo partly shown) [Nystatin], the Antibiotic sensitivity result in the test on NRRL 11459 [1] (100 units/disc) is given as “-”.

With `O=[Te]([O-])[O-].[K+].[K+]` [Potassium Tellurite], in the test with NRRL 11459 [2] (NRRL 11459, ISP #2 agar plates), the “Inhibitor sensitivity, MIC” value is > 500 µg/mL.

Take `O.O.O.O=C([O-])[C@H]([O-])[C@@H]([O-])C(=O)[O-].O=C([O-])[C@H]([O-])[C@@H]([O-])C(=O)[O-].[K+].[K+].[Sb+3].[Sb+3]` [Antimony Potassium tartrate]: the “Inhibitor sensitivity, MIC” value in the test on NRRL 11459 [2] (NRRL 11459, ISP #2 agar plates) is 250 µg/mL.

With `CC(=O)OCC1=C(C(=O)O)N2C(=O)[C@@H](NC(=O)Cc3cccs3)[C@H]2SC1` [Keflin], the Antibiotic sensitivity result in the test with NRRL 11459 [1] (30 μg/disc) is “-”.
